pIC50: −log10 of the molar value.

Data set [1] deals with T1, Bifunctional epoxide hydrolase 2 (Homo sapiens, UniProt P34913).
T1 sequence (P34913 whole entry): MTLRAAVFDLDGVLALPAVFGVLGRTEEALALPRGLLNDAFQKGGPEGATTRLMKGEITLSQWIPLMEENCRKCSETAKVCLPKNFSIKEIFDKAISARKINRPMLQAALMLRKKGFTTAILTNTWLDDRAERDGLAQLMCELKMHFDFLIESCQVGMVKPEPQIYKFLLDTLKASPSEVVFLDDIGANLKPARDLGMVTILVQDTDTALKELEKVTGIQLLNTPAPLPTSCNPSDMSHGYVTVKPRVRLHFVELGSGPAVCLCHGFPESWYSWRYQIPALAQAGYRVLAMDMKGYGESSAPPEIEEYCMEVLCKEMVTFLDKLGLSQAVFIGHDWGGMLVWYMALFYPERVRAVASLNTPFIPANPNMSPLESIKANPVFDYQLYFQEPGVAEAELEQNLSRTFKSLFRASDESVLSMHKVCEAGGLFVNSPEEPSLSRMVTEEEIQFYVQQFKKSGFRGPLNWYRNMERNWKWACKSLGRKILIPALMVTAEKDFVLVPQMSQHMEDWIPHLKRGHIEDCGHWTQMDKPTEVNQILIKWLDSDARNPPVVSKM
Description: Inhibition of sEH using (3-Phenyl-oxiranyl)-acetic acid cyano-(6-methoxy-naphthalen-2-yl)-methyl ester) as substrate incubated for 15 mins prior to substrate addition measured every min for 15 mins by fluorimetric analysis.

Data set [2] can be described thus: Solubility of the compound. The format is physicochemical.
The nature of data set [3]: Solubility of the compound at >100 uM. The format is physicochemical.

Molecule `O=C(Nc1cccc(O)c1)OCC1c2ccccc2-c2ccccc21` had a pIC50 in data set [1] of 5.26.
Consider `NS(=O)(=O)c1ccc(CNc2ncc(-c3ccncc3)c(C3CC3)n2)cc1`, for which the solubility entry in data set [2] is recorded as “Insoluble”.
For `Cc1cc(-c2cnc(NCCCc3ccccn3)nc2C(C)C)on1`, the solubility result in data set [3] is reported as “Insoluble”.
The molecule `O=C(Nc1cccc(Cl)c1)OCCCNS(=O)(=O)c1cccc([N+](=O)[O-])c1` had a pIC50 in data set [1] of 5.49.
Regarding `O=C(NCCCNc1ncc(-c2ccncc2)c(C2CC2)n1)c1ccccn1`, the pIC50 in data set [1] was 4.60.

One may read the pIC50 as the IC50 on a negative log10 scale, so that one unit is a factor of ten.

The record behind these values is ChEMBL document CHEMBL2157944, “Evaluation of structure-derived pharmacophore of soluble epoxide hydrolase inhibitors by virtual screening” (Bioorg Med Chem Lett, 2012).
